Measured values taken from patent US20150322033A1, “ANTIBACTERIAL AGENT” (priority 2012, published 2015).
Values after ≈ are worked out from the molar mass of the structure shown. Read-outs that look alike come from different tables or passages of the source.

Experiments:
[1] = test system: S. aureus Mu50 NR1-1; experiment: MIC by broth microdilution, S. aureus Mu50 NR1-1; format: cell-based; details: Staphylococcus aureus, MU50NR11; Example 3, Table 13; read-out: MIC (mg/L) Mu50 NR1-1 (S80F, w)
Procedure: MIC values of the flavones and quinolone for the strains were measured in the same manners as those of Example 1, except that S. aureus Mu50 NR-1 was also used as Staphylococcus aureus in addition to S. aureus FDA209P and S. aureus Mu50, cell suspensions of the strains were prepared.
S. aureus Mu50 NR1-1 mentioned in Table 13 is a strain selected stepwise from the clinically isolated S. aureus Mu50 strain with deoxynybomycin, and it has a topoisomerase IV encoded by parC in which a […] (see, Hiramatsu K. et al., J. Antimicrob. Agents, 2012, June; 39 (6), 478-85).
In Table 13, the descriptions in the parentheses after the strains indicate the mutated amino acid residue and its position, as represented by (the mutation of topoisomerase IV resulting from the mutation of parCand the mutation of DNA gyrase resulting from the mutation of gyrA). The character “w” means wild-type, representing without mutation.

[2] = test system: S. aureus Mu50; experiment: microbe, parasite or virus in culture; format: cell-based, Staphylococcus aureus; details: for MIC ratio: (MIC value for S. aureus FDA209P)/(MIC value for S. aureus Mu50); for MIC: Staphylococcus aureus
Procedure, shortened: (§1)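 Overnight TSB cultures at 37 °C adjusted to A578 0.3, diluted 500-fold in CAMHB and mixed 1:1 with compound in CAMHB; static overnight incubation at 37 °C. MIC reported in mg/L; Mu50 NR-1 also tested in some runs.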

[3] = test system: S. aureus FDA209P (ATCC 6538P); experiment: microbe, parasite or virus in culture; format: cell-based, Staphylococcus aureus; details: Staphylococcus aureus
Procedure, shortened: as §1

[4] = biological target: T1, GyrA(wt) + GyrB(wt) (Staphylococcus aureus, UniProt P20831); experiment: DNA cleavage assay with GyrA(wt) and GyrB(wt); format: biochemical; details: for Ratio of cleaved DNA (%) / Ratio of substrate plasmid DNA (%): Table 18
T1 construct: made in house; host or cells: E. coli BL21(DE3)
From the text: The gene sequence encoding the wild-type GyrA of Staphylococcus aureus (henceforth also referred to as “GyrA(wt)”) shown as SEQ ID NO: 1 was cloned into the plasmid pMAL-c2 (produced by New England Biolabs) (the resultant is henceforth also referred to as “pMAL-c2-gyrA”).
The gene sequence encoding the wild-type GyrB of Staphylococcus aureus (henceforth also referred to as “GyrB(wt)”) shown as SEQ ID NO: 2 was cloned into the plasmid pMAL-c2 (produced by New England Biolabs) (the resultant is henceforth also referred to as “pMAL-c2-gyrB”).
(§2) E. coliBL21(DE3) (produced by Invitrogen) was transformed with pMAL-c2-gyrA mentioned above, with pMAL-c2-gyrB mentioned above, or with pMAL-c2-SAGAmut84 containing a mutant gyrA encoding the amino acid sequence of GyrA(wt) in which serine residue at the 84th position from the amino terminus is substituted with a leucine residue (see, Hiramatsu K., Igarashi M., Morimoto Y, Baba T., Umekita M., Akamatsu Y., Int. J. Antimicrob. Agents, 2012 June; 39(6), 478-85). To the culture medium of the resulting transformed Escherichia coli, 1 mM […] (produced by Wako Pure Chemical Industries) was added to induce expression of maltose-binding GyrA(wt), maltose-binding GyrB(wt), or maltose-binding mutant GyrA(S84L), and the bacterium was cultured overnight at 25° C. After completion of the culture, the cells were collected, and suspended in a buffer (20 mM Tris-HCl (pH 8.0), 200 mM sodium chloride, 1 mM ethylenediaminetetraacetic acid (EDTA), 1 mM dithiothreitol (DTT)), a protein extracting reagent (10× BugBuster (registered trademark), produced by Novagen) in a volume of 1/10 of the volume of the buffer, and 2.5 μL/10 mL of the buffer of Benzonase (registered trademark) nuclease (produced by Novagen) were added, the mixture was left standing at 25° C. for 30 minutes, and the cells were disrupted and lysed to obtain a disrupted cell suspension containing the maltose-binding GyrA(wt), maltose-binding GyrB(wt), or maltose-binding mutant GyrA(S84L).
(§3) Then, each disrupted cell suspension mentioned above was added to a column filled with an amylose resin covalently bound with maltose (produced by Novagen). A buffer (20 mM Tris-HCl (pH 8.0), 200 mM sodium chloride, 1 mM EDTA) containing 10 mM maltose was added to the column to elute the maltose-binding GyrA(wt), maltose-binding GyrB(wt), and maltose-binding mutant GyrA(S84L).
(§4) To each eluate, 4 units/1 mL of the eluate of protease (Factor Xa, produced by Amersham) was added, and the mixture was left standing at 25° C. for 3 hours and 30 minutes to cleave the maltose-binding proteins, GyrA(wt), GyrB(wt), and mutant GyrA(S84L) from the maltose-binding GyrA(wt), maltose-binding GyrB(wt), and maltose-binding mutant GyrA(S84L).
(§5) Then, GyrA(wt), GyrB(wt), and mutant GyrA(S84L) were concentrated by using an ultrafiltration unit (YM-50 Filter Unit, produced by Millipore).
(§6) The concentrated GyrA(wt), GyrB(wt), and mutant GyrA(S84L) were each suspended in a buffer (35 mM Tris-HCl (pH 7.5), 24 mM potassium chloride, 6 mM magnesium chloride, 1.8 mM spermidine, 0.36 mg/mL bovine serum albumin, 5 mM DTT, 50 volume % glycerol) at a concentration of 1 μg/μL for GyrA(wt), 2 μg/μL for GyrB(wt), or 1 μg/μL for mutant GyrA(S84L).
A substrate plasmid DNA, pTWV228 (0.4 μg, produced by Takara Bio), and levofloxacin (LVFX) or apigenin were added to a buffer (35 mM Tris-HCl (pH 7.5), 24 mM potassium chloride, 6 mM magnesium chloride, 1.8 mM spermidine, 0.36 mg/mL bovine serum albumin, 5 mM DTT), and 0.15 μL of the enzyme solution of GyrA(wt) and […] of the enzyme solution of GyrB(wt) were added to the mixture to prepare a reaction mixture in a total volume of 20
Levofloxacin was added at a final concentration of 0, 0.5, 1, 2, 4, 8, 16, or 32 μg/mL.
The aforementioned reaction solution was left standing at 25° C. for 30 minutes to allow the reaction. […]

[5] = biological target: T2, GyrA(S84L) + GyrB(wt) (Staphylococcus aureus, UniProt P20831, S84L); experiment: DNA cleavage assay with mutant GyrA(S84L) and GyrB(wt); format: biochemical; details: IC50 (μg/mL) GyrA(S84L) + GyrB(wt), Example 9, Table 18
T2 construct: made in house; host or cells: E. coli BL21(DE3)
From the text: as §2, §3, §4, §5, §6
An assay was performed in the same manner as that of the cleavage of the plasmid DNA with GyrA(wt) and GyrB(wt) mentioned above, provided that 0.15 μL of an enzyme solution of mutant GyrA(S84L) and 0.2 μL of the enzyme solution of GyrB(wt) were added instead of […] of the enzyme solution of GyrA(wt) and 0.2 μL of the enzyme solution of GyrB(wt). In FIGS. 3 and 4, the symbols “S”, “L”, and “N” have the same meanings as those explained for FIGS. 1 and 2.
IC50 value of levofloxacin or apigenin was also calculated from the visualized images shown in FIGS. 3 and 4 in the same manner as that used for the calculation using the results shown in FIGS. 1 and 2.
The DNA cleavage assay was performed with M-246 in the same manner as that used in Example 4.

[6] = MU50, read-out: MIC (mg/L) Mu50, Example 1, Tables 1 to 10
[7] = MU50, read-out: MIC (mg/L) S. aureus Mu50, Example 2, Table 12
[8] = Example 1, Tables 1 to 10, read-out: MIC (mg/L) FDA209P
[9] = Example 2, Table 12, read-out: MIC (mg/L) S. aureus FDA209P
[10] = Example 3, Table 13, read-out: MIC (mg/L) FDA209P (w, w)
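For MIC ratio in this document: ratio is FDA209P MIC divided by Mu50 MIC.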

SMILES | MIC [1] [mg/L] | MIC ratio [2] | MIC [2, 6] [mg/L] | MIC [2, 7] [mg/L] | MIC [3, 8] [mg/L] | MIC [3, 9] [mg/L] | MIC [3, 10] [mg/L] | other results
COc1ccc2c(=O)cc(-c3ccc(O)cc3)oc2c1 [No. 69, 2-(4-hydroxyphenyl)-7-methoxychromen-4-one] | > 128 | 16 | 16 (≈ 59.6 µM) | 8 (≈ 29.8 µM) | > 128 | 128 (≈ 477 µM) | > 128 | 
COc1ccc2c(=O)cc(-c3ccc(O)c(OC)c3)oc2c1 [M-246] |  |  |  |  |  |  |  | Ratio of cleaved DNA (%) ([4]; 0.5 μg/mL): 18%; Ratio of substrate plasmid DNA (%) ([4]; 0.5 μg/mL): 82%; Ratio of cleaved DNA (%) ([4]; 1 μg/mL): 23%; Ratio of substrate plasmid DNA (%) ([4]; 1 μg/mL): 77%; Ratio of cleaved DNA (%) ([4]; 2 μg/mL): 29%; Ratio of substrate plasmid DNA (%) ([4]; 2 μg/mL): 71%; Ratio of cleaved DNA (%) ([4]; 4 μg/mL): 40%; Ratio of substrate plasmid DNA (%) ([4]; 4 μg/mL): 60%; Ratio of cleaved DNA (%) ([4]; 8 μg/mL): 47%; Ratio of substrate plasmid DNA (%) ([4]; 8 μg/mL): 53%; Ratio of cleaved DNA (%) ([4]; 16 μg/mL): 56%; Ratio of substrate plasmid DNA (%) ([4]; 16 μg/mL): 44%; Ratio of cleaved DNA (%) ([4]; 32 μg/mL): 67%; Ratio of substrate plasmid DNA (%) ([4]; 32 μg/mL): 33%; IC50 ([4]; IC50 (μg/mL) GyrA(wt) + GyrB(wt), Example 9, Table 18): 53.6 µM; IC50 [5]: 3.35 µM; MIC ([2]; MU50, read-out: MIC Mu50, Example 8, Table 17): 4 mg/L (≈ 13.4 µM); MIC ([3]; Example 8, Table 17, read-out: MIC FDA209P): 128 mg/L (≈ 429 µM)
O.O=c1c(O)c(-c2ccc(O)cc2)oc2cc(O)cc(O)c12 [No. 4, 3,4′,5,7-Tetrahydroxyflavone Hydrate] | 16 | 2 | 8 | 8 | 16 | 16 | 16 | 
COc1ccc2c(=O)cc(-c3ccccc3)oc2c1 [No. 15, 7-Methoxyflavone] | 128 (≈ 507 µM) | 4 | 32 (≈ 127 µM) | 32 (≈ 127 µM) | 128 (≈ 507 µM) | 128 (≈ 507 µM) | 128 (≈ 507 µM) | 
O=c1cc(-c2ccc(O)c(O)c2)oc2cc(O)cc(O)c12 [No. 6, 3′,4′,5,7-Tetrahydroxyflavone] | 32 (≈ 112 µM) | 4 |  | 8 (≈ 27.9 µM) | 32 (≈ 112 µM) | 32 (≈ 112 µM) | 32 (≈ 112 µM) | 
COc1cc(O)c2c(=O)c(OC)c(-c3cc(O)c(OC)c(OC)c3)oc2c1 [No. 24, 5-hydroxy-2-(3-hydroxy-4,5-dimethoxyphenyl)-3,7-dimethoxychromen-4-one] | 128 (≈ 342 µM) | 16 | 8 (≈ 21.4 µM) | 8 (≈ 21.4 µM) | 128 (≈ 342 µM) | 128 (≈ 342 µM) | 128 (≈ 342 µM) | 
